Patent US4910152A, “Method for binding opioid receptors” (priority 1986, dated 1990)
“Also recorded” adds a separate entry of the source. Like-named read-outs stand apart in the source and are kept apart here.

Experiments:
[1] = biological target: T1, opioid receptors in rat brain membrane preparations (Rattus norvegicus, UniProt P33535); assay: 3H-DHM displacement from rat brain membranes (Example 4 method); conditions: for Hill coefficient / binding activity in synaptosomal membranes (in words): 3H-DHM displacement; for binding activity in synaptosomal membranes (in words): rat brain synaptosomal membranes
T1 sequence (P33535 whole entry): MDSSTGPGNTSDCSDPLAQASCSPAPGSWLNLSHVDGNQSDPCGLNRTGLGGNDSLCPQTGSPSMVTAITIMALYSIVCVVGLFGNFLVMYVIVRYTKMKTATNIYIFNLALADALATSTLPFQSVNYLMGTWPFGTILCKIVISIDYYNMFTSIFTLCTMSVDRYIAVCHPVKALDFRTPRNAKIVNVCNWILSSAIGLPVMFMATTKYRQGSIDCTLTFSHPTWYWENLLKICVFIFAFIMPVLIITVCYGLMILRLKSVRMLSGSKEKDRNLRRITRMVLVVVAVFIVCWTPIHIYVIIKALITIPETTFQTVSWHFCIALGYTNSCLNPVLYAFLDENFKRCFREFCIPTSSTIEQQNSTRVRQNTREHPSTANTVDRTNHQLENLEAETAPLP
Method: (§2) The data was analyzed, using the program LIGAND of Munson and Rodbard.

[2] = biological target: T1, opioid receptors in rat brain membrane preparations
Method: as §2

opioid receptors = conditions: Hahn, Pasternak et al.; cited from earlier work
[3] = tested on: guinea pig ileum longitudinal muscle preparation; assay: Electrically stimulated guinea pig ileum longitudinal muscle (Example 5); format: cell-based
Method: 6-FN was tested for activity on an electrically stimulated guinea pig ileum longitudinal muscle preparation. In this test, a specimen of guinea pig ileum was stretched between two wires in a nutrient solution (2.5 mil.) and stimulated supramaximally at 0.1 Hz. In the absence of opioid agonists and antagonists electrical stimulation of the muscle results in contraction.

mouse vas deferens = biological target: T2, mouse vas deferens (Mus musculus, UniProt P32300); assay: Mouse vas deferens bioassay, single dose method, DALE agonist (Example 12); format: cell-based; conditions: for inhibitory effect on the contractions (in words) / duration / reversibility of antagonism in the m.v.d. (in words): m.v.d.; for opioid antagonism, m.v.d.: m.v.d. bioassay; for inhibition of DALE-induced contractions of the m.v.d.: 25-1000 nM, all doses tested; for Relative potency, bioassay M.V.D.: Ke of naloxone in m.v.d. taken to be 1; for t1/2 (half-time of recovery), mouse vas deferens: geometric mean (95% confidence limits); for reversal of antagonism by naloxone, m.v.d.: naloxone up to 10,000 nM; for M.V.D./G.P.I. (relative affinity): ratio of m.v.d. to G.p.i. relative potency
T2 construct: Each of several samples of mouse vas deferens (m.v.d.); tissue A-Lab, Solna, Sweden (mice); host or cells: vas deferens of male NMRI mice
T2 sequence (P32300 whole entry): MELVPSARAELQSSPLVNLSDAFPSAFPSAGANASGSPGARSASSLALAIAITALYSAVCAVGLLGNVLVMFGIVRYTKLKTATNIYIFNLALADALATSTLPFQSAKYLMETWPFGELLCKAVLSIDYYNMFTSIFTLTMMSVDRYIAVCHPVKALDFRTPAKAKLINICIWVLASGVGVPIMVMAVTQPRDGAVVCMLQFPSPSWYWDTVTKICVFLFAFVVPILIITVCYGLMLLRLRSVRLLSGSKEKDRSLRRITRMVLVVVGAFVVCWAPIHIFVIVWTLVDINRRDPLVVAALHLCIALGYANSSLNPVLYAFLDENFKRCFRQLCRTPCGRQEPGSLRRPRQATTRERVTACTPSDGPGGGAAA

[4] = biological target: T3, guinea-pig ileum myenteric plexus-longitudinal muscle (Cavia porcellus, UniProt A0ACM8Q262); assay: Guinea-pig ileum myenteric plexus-longitudinal muscle bioassay, single dose method, normorphine agonist (Example 12); format: cell-based; conditions: for opioid antagonism, G.p.i.: G.p.i. bioassay; for Relative potency, bioassay G.P.I.: Ke of naloxone in m.v.d. taken to be 1; for reversal of antagonism by naloxone, G.p.i.: addition of naloxone; for duration of action in the G.p.i. (in words): compared with parent opioids; for t1/2 (half-time of recovery), guinea-pig M. plexus / Kb: geometric mean (95% confidence limits); for Kb: agonist normorphine, read-out: Ke (dissociation constant), guinea-pig M. plexus
T3 construct: normorphine as agonist
T3 sequence (A0ACM8Q262 1-400): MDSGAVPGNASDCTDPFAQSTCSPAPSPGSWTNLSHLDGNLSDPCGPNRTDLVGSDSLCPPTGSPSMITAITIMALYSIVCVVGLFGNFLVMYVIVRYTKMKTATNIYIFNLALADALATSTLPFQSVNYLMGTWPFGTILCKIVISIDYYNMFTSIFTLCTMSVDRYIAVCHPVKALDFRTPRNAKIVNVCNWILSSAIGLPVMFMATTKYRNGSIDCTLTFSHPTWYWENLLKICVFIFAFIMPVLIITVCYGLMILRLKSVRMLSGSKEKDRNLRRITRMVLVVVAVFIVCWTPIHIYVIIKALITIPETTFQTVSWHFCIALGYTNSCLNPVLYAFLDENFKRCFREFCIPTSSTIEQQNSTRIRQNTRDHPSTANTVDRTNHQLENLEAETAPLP

[5] = biological target: T4, delta-type opioid binding sites (Rattus norvegicus, UniProt P33533); assay: Delta-site binding, 1 nM [3H]-DALE with 30 nM DAGO, rat brain membranes; conditions: for Relative potency, binding assay Delta: Ki of naloxone in inhibiting 3H-DALE taken to be 1; for Relative affinity, delta: Ki^-1 x 100 / sum of Ki^-1 values; for delta affinity / selectivity (in words): delta-type opioid receptors
T4 construct: Rat brain membranes were prepared; from tissue; host or cells: rat brain membranes
T4 sequence (P33533 whole entry): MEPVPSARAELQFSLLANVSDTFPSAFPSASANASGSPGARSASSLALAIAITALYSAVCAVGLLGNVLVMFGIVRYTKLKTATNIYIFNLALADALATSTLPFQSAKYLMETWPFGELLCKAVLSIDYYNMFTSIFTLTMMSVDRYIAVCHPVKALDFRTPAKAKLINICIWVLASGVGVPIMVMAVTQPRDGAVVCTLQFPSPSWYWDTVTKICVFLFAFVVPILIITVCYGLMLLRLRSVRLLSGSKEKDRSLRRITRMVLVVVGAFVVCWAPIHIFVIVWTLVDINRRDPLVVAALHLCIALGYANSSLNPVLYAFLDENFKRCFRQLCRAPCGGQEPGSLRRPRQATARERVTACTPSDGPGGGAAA
Method: (§1) Rat brain membranes were prepared and binding assays performed as previously described by Neil, A. in "Detection and characterization of four opioid binding sites in the mouse brain," Acta Pharmacol. Tox. 56: 108-116 (1985).

[6] = biological target: T5, mu-type opioid binding sites (Rattus norvegicus, UniProt P33535); assay: Mu-site binding, 0.2 nM [3H]-dihydromorphine, rat brain membranes; conditions: for Relative potency, binding assay Mu: Ki of naloxone in inhibiting 3H-DALE taken to be 1; for Relative affinity, mu: Ki^-1 x 100 / sum of Ki^-1 values; for Ki: [3H]-DHM, read-out: Ki, mu (inhibition of binding)
T5 construct: Rat brain membranes were prepared; from tissue; host or cells: rat brain membranes
T5 sequence (P33535 whole entry): as the sequence (P33535 whole entry) above
Method: as §1

[7] = biological target: T6, kappa-type opioid binding sites (Rattus norvegicus, UniProt P34975); assay: Kappa-site binding, 1 nM [3H]-(±)-EKC with 200 nM DAGO and DADL, rat brain membranes; conditions: for Relative potency, binding assay Kappa: Ki of naloxone in inhibiting 3H-DALE taken to be 1; for Relative affinity, kappa: Ki^-1 x 100 / sum of Ki^-1 values
T6 construct: Rat brain membranes were prepared; from tissue; host or cells: rat brain membranes
T6 sequence (P34975 whole entry): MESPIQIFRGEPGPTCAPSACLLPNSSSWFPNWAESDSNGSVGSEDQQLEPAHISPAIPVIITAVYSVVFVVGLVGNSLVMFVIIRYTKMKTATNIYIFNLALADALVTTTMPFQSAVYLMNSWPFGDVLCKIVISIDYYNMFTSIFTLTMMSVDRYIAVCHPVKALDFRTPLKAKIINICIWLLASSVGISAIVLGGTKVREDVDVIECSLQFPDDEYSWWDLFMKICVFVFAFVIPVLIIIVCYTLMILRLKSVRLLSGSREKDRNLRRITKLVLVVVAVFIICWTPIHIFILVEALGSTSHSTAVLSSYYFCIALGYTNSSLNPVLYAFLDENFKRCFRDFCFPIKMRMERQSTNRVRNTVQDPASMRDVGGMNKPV
Method: as §1

[8] = feeding induced by 2-deoxy-D-glucose; cited from earlier work
[9] = biological target: T1, opioid receptors in rat brain membrane preparations; assay: biochemical
Method: as §2

[10] = biological target: opioid receptor sites (3H-DALE); assay: Site selectivity displacement, 3H-DALE indicator (with cold DHM); format: binding; conditions: 0.43 nM cold DHM and 0.43 nM DALE*; determined graphically
Description: In FIG. 1 it will be noted that compounds which displace the two indicator ligands differently provide a curve which is convex towards the axis of the labeled indicator ligand which is less favorably displaced.

O=C1OC2(c3ccc(O)cc3Oc3cc(O)ccc32)c2ccc(NC(=S)NN=C(c3ccccc3)c3ccccc3)cc21 [6-FB, 1-(N)-fluoresceinyl benzophenone thiosemicarbazone, reference compound]
displacement of 3H-DHM (result in words) ([1]; 10^-6 M): inactive

C=CCN1CC[C@]23c4c5ccc(O)c4O[C@H]2C(=NNC(=S)Nc2ccc(-c4c6ccc(=[N+](C)C)cc-6oc6cc(N(C)C)ccc46)c(C(=O)[O-])c2)CC[C@@]3(O)[C@H]1C5 [6-RN, 1-(N)-tetramethylrhodaminyl-B-naloxone Thiosemicarbazone]
Kd [2]: 5.3 nM | Hill coefficient [1]: 1.09 | binding activity in synaptosomal membranes (in words) [1]: sufficient binding activity | IC50 ([1]; read-out: IC50 (concentration necessary for 50% displacement of 3H-DHM), rat brain synaptosomal plasma membranes, determined graphically): 12 nM

C=CCN1CC[C@]23c4c5ccc(O)c4O[C@H]2C(=NN=C2CC[C@@]4(O)[C@H]6Cc7ccc(O)c8c7[C@@]4(CCN6CC=C)[C@H]2O8)CC[C@@]3(O)[C@H]1C5 [naloxone azine]
persistence of binding (in words) (opioid receptors): long lasting effect

Oc1ccc2c3c1O[C@H]1[C@@H](O)C=C[C@H]4[C@@H](C2)NCC[C@@]341 [normorphine, reference compound]
inhibition of contraction of the muscle (agonist effect) ([3]; 25 microliters, 10^-7 M): substantially inhibited contraction of the muscle

C[C@]12CC[C@@H]3c4ccc(O)cc4CC[C@H]3[C@@H]1CCC2=NN [EH, estrone hydrazone, reference compound]
inhibitory effect on the contractions (in words) (mouse vas deferens): inhibitory effects of magnitudes similar to NAL-E and NAL-AD-NAL | opioid antagonism, m.v.d. (mouse vas deferens): none of the steroids, EH, ADDH or 17-beta-estradiol, showed opioid antagonism | opioid antagonism, G.p.i. [4]: none of the steroids, EH, ADDH or 17-beta-estradiol, showed opioid antagonism

C[C@]12CC[C@@H]3c4ccc(O)cc4CC[C@H]3[C@@H]1CC[C@@H]2O [17-beta-estradiol, reference compound]
inhibitory effect on the contractions (in words) (mouse vas deferens): no inhibitory effect on the contractions | opioid antagonism, m.v.d. (mouse vas deferens): none of the steroids, EH, ADDH or 17-beta-estradiol, showed opioid antagonism | opioid antagonism, G.p.i. [4]: none of the steroids, EH, ADDH or 17-beta-estradiol, showed opioid antagonism

CN1CC[C@]23c4c5ccc(O)c4O[C@H]2C(=NNC(=S)Nc2ccc4c(c2)C(=O)OC42c4ccc(O)cc4Oc4cc(O)ccc42)CC[C@@]3(O)[C@H]1C5 [6-FO, 1-(N)-fluoresceinyl oxymorphone thiosemicarbazone]
Kd [2]: 12.8 nM | Hill coefficient [1]: 0.989 | binding activity in synaptosomal membranes (in words) [1]: sufficient binding activity

C=CCN1CC[C@]23c4c5ccc(O)c4O[C@H]2C(=NN=C2C=C4CC[C@@H]6[C@H](CC[C@]7(C)C(=NN=C8CC[C@@]9(O)[C@H]%10Cc%11ccc(O)c%12c%11[C@@]9(CCN%10CC=C)[C@H]8O%12)CC[C@@H]67)[C@@]4(C)CC2)CC[C@@]3(O)[C@H]1C5 [NAL-AD-NAL]
Kb (mouse vas deferens): 37 nM | inhibition of DALE-induced contractions of the m.v.d. (mouse vas deferens): 20-50% | Relative potency, bioassay M.V.D. (mouse vas deferens): 1.4 | t1/2 (half-time of recovery), mouse vas deferens (mouse vas deferens): 19 (14-24) min | reversal of antagonism by naloxone, m.v.d. (mouse vas deferens): not reversed by addition of naloxone | M.V.D./G.P.I. (relative affinity) (mouse vas deferens): 0.16 | Relative potency, bioassay G.P.I. [4]: 8.9 | reversal of antagonism by naloxone, G.p.i. [4]: Nor were the NAL-E or NAL-AD-NAL antagonisms in the G.p.i. reversed by naloxone | duration of action in the G.p.i. (in words) [4]: somewhat longer acting than their parent opioids | t1/2 (half-time of recovery), guinea-pig M. plexus [4]: 34 min | Kb [4]: 5.7 nM | Relative potency, binding assay Delta [5]: 3.4 | Relative affinity, delta [5]: 5 | delta affinity / selectivity (in words) [5]: not to show a high delta affinity | Relative potency, binding assay Mu [6]: 18.0 | Relative affinity, mu [6]: 78 | Ki [6]: 1.6 nM | mu receptor affinity (in words) ([6]; compared with naloxone): mu receptor affinity on the order of naloxone | Relative potency, binding assay Kappa [7]: 0.19 | Relative affinity, kappa [7]: 7

C=CCN1CC[C@]23c4c5ccc(O)c4O[C@H]2C(=NN=C2CC[C@H]4[C@@H]6CCc7cc(O)ccc7[C@H]6CC[C@]24C)CC[C@@]3(O)[C@H]1C5 [NAL-E]
Kb (mouse vas deferens): 5.8 nM | inhibition of DALE-induced contractions of the m.v.d. (mouse vas deferens): 20-50% | Relative potency, bioassay M.V.D. (mouse vas deferens): 8.8 | antagonist potency versus naloxone, m.v.d. (mouse vas deferens; antagonism of DALE effects): nine-fold more potent than naloxone | selectivity in antagonizing D-Ala2-Leu5-enkephalin effects (in words) (mouse vas deferens; compared with naloxone, delta-rich tissue): far more selective than naloxone | t1/2 (half-time of recovery), mouse vas deferens (mouse vas deferens): > 1000 min | duration / reversibility of antagonism in the m.v.d. (in words) (mouse vas deferens): very longlasting; also recorded: very long lasting effects | duration / reversibility of antagonism in the m.v.d. (in words) (mouse vas deferens; listed as NALE): almost irreversible in some observations | reversal of antagonism by naloxone, m.v.d. (mouse vas deferens): not reversed by addition of naloxone | M.V.D./G.P.I. (relative affinity) (mouse vas deferens): 12.0 | Relative potency, bioassay G.P.I. [4]: 0.74 | reversal of antagonism by naloxone, G.p.i. [4]: Nor were the NAL-E or NAL-AD-NAL antagonisms in the G.p.i. reversed by naloxone | selectivity in antagonizing normorphine (in words) ([4]; compared with naloxone, mu-rich tissue): far less selective | duration of action in the G.p.i. (in words) [4]: somewhat longer acting than their parent opioids | t1/2 (half-time of recovery), guinea-pig M. plexus [4]: 27 min | Kb [4]: 69 nM | fold less potent than naloxone, G.p.i. ([4]; less potent than naloxone): 22 fold | Relative potency, binding assay Delta [5]: 7.4 | Relative affinity, delta [5]: 70 | delta affinity / selectivity (in words) [5]: delta selective; also recorded: long lasting and selectively and preferentially bind delta-type opioid receptors | delta affinity / selectivity (in words) ([5]; listed as Nal-E): far more delta selective than naloxone | Relative potency, binding assay Mu [6]: 1.7 | Relative affinity, mu [6]: 16 | Ki [6]: 17 nM | Relative potency, binding assay Kappa [7]: 4.4 | Relative affinity, kappa [7]: 14

C=CCN1CC[C@]23c4c5ccc(O)c4O[C@H]2C(NC(=S)Nc2ccc4c(c2)C(=O)OC42c4ccc(O)cc4Oc4cc(O)ccc42)CC[C@@]3(O)[C@H]1C5 (single isomer, unassigned) [FAN, N-(1-N-allyl-14-hydroxynordihydro-6δ-morphinanyl)-N'-fluorosceinyl thiourea]
Kd [2]: 18.9 nM

O=C1CC[C@@]2(O)[C@H]3Cc4ccc(O)c5c4[C@@]2(CCN3CC2CC2)[C@H]1O5 [naltrexone]
suppression of feeding [8]: effective in suppressing feeding

O=C1OC2(c3ccc(O)cc3Oc3cc(O)ccc32)c2ccc(NC(=S)NN=C3CC[C@@]4(O)[C@H]5Cc6ccc(O)c7c6[C@@]4(CCN5CC4CC4)[C@H]3O7)cc21 [6-FNX, 1-(N)-fluoresceinyl naltrexone thiosemicarbazone]
Kd [9]: 2.6 nM | Hill coefficient [1]: 0.675 | binding activity in synaptosomal membranes (in words) [1]: sufficient binding activity

C=CCN1CC[C@]23c4c5ccc(O)c4O[C@H]2C(=NNC(=S)Nc2ccc4c(c2)C(=O)OC42c4ccc(O)cc4Oc4cc(O)ccc42)CC[C@@]3(O)[C@H]1C5 [6-FN, 1-(N)-Fluoresceinyl Naloxone Thiosemicarbazone]
IC50 [10]: 17 nM | reversibility of 6-FN partial agonist activity by naloxone ([3]; 10^-6 M 6-FN, 10^-7 M naloxone): reversible with 10^-7 M naloxone | agonist activity of 6-FN in ileum ([3]; 10^-6 M (FIG. 2)): partial agonist activity; also recorded: slight agonist effect | inhibition of the agonist effect of normorphine ([3]; final 6-FN concentration 10^-7 M, added prior to normorphine): significantly inhibited the agonist effect of normorphine | antagonist effect relative to naloxone ([3]; inhibition of agonist effect of normorphine, compared with naloxone): ten times less effective | elimination of antagonist effect by washing ([3]; washing of the ileum specimen): did not readily eliminate the antagonist effect | Kd [9]: 11.5 nM | Hill coefficient [1]: 0.671 | binding activity in synaptosomal membranes (in words) [1]: sufficient binding activity

C[C@]12CCC(=NN)C=C1CC[C@@H]1[C@@H]2CC[C@]2(C)C(=NN)CC[C@@H]12 [ADDH, Δ^4 androstenedione-(3,17)-dihydrazone, reference compound]
inhibitory effect on the contractions (in words) (mouse vas deferens): inhibitory effects of magnitudes similar to NAL-E and NAL-AD-NAL | opioid antagonism, m.v.d. (mouse vas deferens): none of the steroids, EH, ADDH or 17-beta-estradiol, showed opioid antagonism | opioid antagonism, G.p.i. [4]: none of the steroids, EH, ADDH or 17-beta-estradiol, showed opioid antagonism

C=CCN1CC[C@]23c4c5ccc(O)c4O[C@H]2C(=O)CC[C@@]3(O)[C@H]1C5 [naloxone, reference compound]
t1/2 (half-time of recovery), guinea-pig M. plexus [4]: 15 min
